The values that follow come from patent US7723366B2 (Chugai Seiyaku Kabushiki Kaisha, priority 2001, dated 2010).

Broadly, the IC50 is the concentration that gives 50% inhibition. The term melting point denotes the temperature, or range, at which the solid turns liquid.

The subject of data set [1] is muscle (M) isoform of CPT-I. The following applies: read-out: IC50 of malonyl-CoA inhibition of CPT-I; cited from earlier work.
For data set [2], the system named is human breast cancer cells and xenografts. The following applies: cited from earlier work.
The target in data set [3] is T1, malonyl-CoA decarboxylase prepared from rat heart (Rattus norvegicus, UniProt Q920F5).
T1 construct: from tissue; host or cells: rat heart
T1 sequence (Q920F5 39-492): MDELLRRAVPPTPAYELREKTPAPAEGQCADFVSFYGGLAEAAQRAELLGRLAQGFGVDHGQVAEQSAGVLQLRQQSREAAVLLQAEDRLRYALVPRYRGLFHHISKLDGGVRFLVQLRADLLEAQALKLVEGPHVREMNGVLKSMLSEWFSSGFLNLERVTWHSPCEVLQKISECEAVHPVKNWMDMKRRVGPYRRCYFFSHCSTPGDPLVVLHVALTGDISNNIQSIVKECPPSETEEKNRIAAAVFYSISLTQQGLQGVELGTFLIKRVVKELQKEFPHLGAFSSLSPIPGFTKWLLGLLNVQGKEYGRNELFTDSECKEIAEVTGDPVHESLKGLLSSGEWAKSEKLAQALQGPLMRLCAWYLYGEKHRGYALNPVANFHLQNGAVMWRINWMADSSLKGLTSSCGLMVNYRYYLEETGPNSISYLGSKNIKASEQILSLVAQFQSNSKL
As to the kind of experiment: In vitro MCD inhibitory assay (spectrophotometric, 96 well). The class given is biochemical. The following applies: read-out: IC50 of the MCD inhibitors. The method, then:
The following reagents are added into a 96 well titer plate: Tris-HCl buffer, 20 μL; DTE, 10 μL; I -malate, 20 μL; NAD, 10 μL; NADH, 25 μL; water, 80 μL; malic dehydrogenase, 5 μL. The contents are mixed and incubated for 2 min followed by the addition of 5 μL of citrate synthase. […] The content is incubated and absorbence at […] is measured.
Active compounds are characterized by the concentration of the compound that caused 50% inhibition of MCD activity (IC50).

The test system of data set [4] is isolated working hearts from male Sprague-Dawley rats. Kind of data set: Glucose oxidation and fatty acid oxidation measurement in the perfused rat heart. The following applies: compared with known metabolism modulators ranolazine or trimetazidine. Here is the method:
Isolated working hearts from male Sprague-Dawley rats are subjected to a 60-minute aerobic perfusion period with a modified Krebs-Henseleit solution containing 5 mmol/L glucose; 100 μU/mL insulin; 3% BAS; and 1.2 mmol/L palmitate. Working hearts are used in these studies to approximate the metabolic demand of the heart seen in vivo. (Kantor et al., Circulation Research 86:580-588(2000)). The test compound is added 5 minutes into the perfusion period.
Glucose oxidation rates are determined by the quantitative collection of ^14CO2 produced by hearts perfused with buffer containing […]. Rates of fatty acid oxidation are determined by the quantitative collection of ^14CO2 produced by hearts perfused with buffer containing [^14C]palmitate (McNeill, J. H. in “Measurement of cardiovascular function”, chapter 2, CRC press, New York (1997)).
Active compounds are characterized by an increase in glucose oxidation as compared to control experiment (DMSO). The compounds that caused statistically significant increases in glucose oxidation are considered to be active. The preferred compounds cause statistically significant increases in glucose oxidation at 20 μM. Statistical significance was calculated using the Student's t test for paired or unpaired samples, as appropriate. The results with P<0.05 are considered to be statistically significant.

As to `CC(C)(COP(=O)(O)OP(=O)(O)OC[C@H]1O[C@@H](n2cnc3c(N)ncnc32)[C@H](O)[C@@H]1OP(=O)(O)O)[C@@H](O)C(=O)NCCC(=O)NCCSC(=O)CC(=O)O` [Malonyl-CoA], the IC50 in data set [1] was 30 nM.

Regarding `CCCCCCCCCCCCCCOc1ccc(C(=O)O)o1` [TOFA, 5-(tetradecyloxy)-2-furoic acid], the malonyl-CoA level in data set [2] (breast carcinoma cells) is reported as 60 % of the control. Besides, the antitumor activity entry in data set [2] is “does not show any antitumor activity”.

Consider `CCCCCCNc1ccc2nc(S)sc2c1` [Table 2; entry 1, 6-(hexylamino)-1,3-benzothiazole-2-thiol], for which, in data set [3], the half-maximal inhibitory concentration (IC50) is 535 nM.

As for `Sc1nc2ccc(NCc3ccccc3)cc2s1` [Table 2; entry 3, 6-[(phenylmethyl)amino]-1,3-benzothiazole-2-thiol], in data set [3], the IC50 worked out at 2620 nM.

On to `CCCCCCN(C(=O)Nc1cc(OC)cc(OC)c1)c1ccc2nc(S)sc2c1` [Table 3; entry 1, N′-[3,5-bis(methyloxy)phenyl]-N-hexyl-N-(2-mercapto-1,3-benzothiazol-6-yl)urea], for which, in data set [3], the IC50 worked out at 65 nM. The “effects in metabolism shift compared with ranolazine or trimetazidine” value in data set [4] is on record as “more profound effects in metabolism shift”.

For `CCN(C(=O)Nc1ccccc1)c1ccc2nc(S)sc2c1` [Table 3; entry 5], the half-maximal inhibitory concentration (IC50) in data set [3] is 54 nM. For the same compound, the “effects in metabolism shift compared with ranolazine or trimetazidine” value in data set [4] is on record as “more profound effects in metabolism shift”.

On to `S=C(Nc1ccccc1)N(Cc1ccccc1)c1ccc2nc(S)sc2c1` [Table 3; entry 8], for which the IC50 in data set [3] was 240 nM.

In the case of `O=C(COc1ccccc1)N(Cc1ccccc1)c1ccc2nc(S)sc2c1` [Table 4; entry 1, N-(2-mercapto-1,3-benzothiazol-6-yl)-N-(phenylmethyl)-2-(phenyloxy)acetamide], the IC50 in data set [3] amounted to 1020 nM.

As to `CCCN(C(=O)N(CC(C)C)CC(C)C)c1ccc2nc(S)sc2c1` [Table 5; entry 5], in data set [3], the IC50 was determined as 263 nM.

As for `O=S(=O)(c1ccc2sc(S)nc2c1)N1CCCCC1` [Table 7; entry 2], in data set [3], the IC50 turned out to be 466 nM.

In turn, `CCOC(=O)c1csc(S)n1` [Table 8; entry 1, Ethyl 2-Mercapto-1,3-thiazole-4-carboxylate] had a melting point of 120 to 121 °C.
